What was measured:
[1] = biological target: T1, human DAT (Homo sapiens, UniProt Q01959); assay: Inhibition of DA uptake; type: cell-based
T1 construct: expressed in transfected cells; host or cells: HEK-293 cells (Invitrogen, Zug, Switzerland)
Experimental: The potencies of the drugs to inhibit the DAT were evaluated as previously described in HEK-293 cells (Invitrogen, Zug, Switzerland) stably transfected with the human DAT [8].

[2] = biological target: T1, human DAT; assay: Inhibition of methamphetamine-induced DA release; type: cell-based; settings: HEK-293 cells expressing human DAT preloaded with 3H-DA; release induced with 10 μM methamphetamine, 15 min; means of 3–4 independent experiments and 95% CI
Experimental: We performed DA transporter mediated release experiments as previously published with slight modification. In brief, HEK-293 cells expressing the human DAT as stated above were cultured in 48 well-plates. Cells were filled with ^3H-DA, washed, and incubated with 250 μL buffer containing the drug alone or in combinations. […] DA release was stopped after 15 min by removing the release buffer from the cells. To quantify the DA release we determined the radioactivity in the cells after another wash step. The residual radioactivity in the cells after methamphetamine alone defined 100% DA release.

[3] = biological target: T1, human DAT; parameters: method as in PMID 22897747; settings: read-out: DA release potency (EC50); HEK-293 cells expressing human DAT; 95% CI 0.9 μM-[…]; as shown previously ref 25; cited from earlier work

T1 sequence (Q01959 whole entry): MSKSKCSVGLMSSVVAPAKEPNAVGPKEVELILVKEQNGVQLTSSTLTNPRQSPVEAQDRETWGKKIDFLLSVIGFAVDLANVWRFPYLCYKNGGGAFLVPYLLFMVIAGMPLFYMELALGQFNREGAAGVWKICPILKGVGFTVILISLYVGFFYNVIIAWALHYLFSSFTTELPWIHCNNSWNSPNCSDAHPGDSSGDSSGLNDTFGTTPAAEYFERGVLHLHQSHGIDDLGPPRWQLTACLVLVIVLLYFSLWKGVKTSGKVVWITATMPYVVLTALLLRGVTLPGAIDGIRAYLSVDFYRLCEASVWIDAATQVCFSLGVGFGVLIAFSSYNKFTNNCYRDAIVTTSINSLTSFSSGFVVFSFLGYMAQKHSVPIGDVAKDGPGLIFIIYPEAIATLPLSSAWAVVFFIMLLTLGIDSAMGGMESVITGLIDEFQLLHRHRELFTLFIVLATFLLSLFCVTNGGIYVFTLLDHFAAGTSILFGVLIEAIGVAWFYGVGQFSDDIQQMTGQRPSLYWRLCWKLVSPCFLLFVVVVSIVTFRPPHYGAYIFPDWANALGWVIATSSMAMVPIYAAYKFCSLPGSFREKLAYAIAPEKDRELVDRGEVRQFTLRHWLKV

| Compound | IC50 ([1]; HEK-293 cells stably transfected with the human DAT, means of 3–4 independent experiments and 95% CI, read-out: DA uptake IC50 (95% CI)) [nM] | IC50 [2] [nM] | IC50 [1] [nM] | EC50 [3] [nM] |
| --- | --- | --- | --- | --- |
| CCCC(C(=O)c1ccc2c(c1)OCO2)N1CCCC1 (stereo not shown) [MDPV, 3,4-methylenedioxypyrovalerone] | 31 | 280 |  |  |
| CN[C@@H](C)Cc1ccccc1 [Methamphetamine, d-methamphetamine] |  |  | 1050 | 1560 |
